± gives the expanded uncertainty stated by the source.
Columns and labels:
[1] = xn = mol fraction of the nth substance listed; conditions: 101 kPa, Liquid, Vibrating tube method
[2] = 101.33 kPa, Liquid, Vibrating tube method

Compound `CCCC[N+]1(C)CCCC1.O=S(=O)([N-]S(=O)(=O)C(F)(F)F)C(F)(F)F` + CN(C)C=O has a mass density ([1]; 293.15 K, x1 = 0.0912) of 1074.98 ± 0.17 kg/m3, a mass density ([1]; 293.15 K, x1 = 0.1871) of 1161.1 ± 0.22 kg/m3 and a mass density ([1]; 293.15 K, x1 = 0.2922) of 1224.53 ± 0.25 kg/m3. The mass density ([1]; 293.15 K, x1 = 0.3783) was 1262.14 ± 0.27 kg/m3, the mass density ([1]; 293.15 K, x1 = 0.4845) was 1298.31 ± 0.31 kg/m3 and the mass density ([1]; 293.15 K, x1 = 0.5809) was 1324.74 ± 0.33 kg/m3. For the same compound, the mass density ([1]; 293.15 K, x1 = 0.6768) was 1346.86 ± 0.37 kg/m3, the mass density ([1]; 293.15 K, x1 = 0.7744) was 1366.1 ± 0.42 kg/m3 and the mass density ([1]; 293.15 K, x1 = 0.8686) was 1381.39 ± 0.48 kg/m3. For the same compound, the mass density ([1]; 298.15 K, x1 = 0.0912) was 1070.09 ± 0.17 kg/m3, the mass density ([1]; 298.15 K, x1 = 0.1871) was 1156.23 ± 0.22 kg/m3 and the mass density ([1]; 298.15 K, x1 = 0.2922) was 1219.62 ± 0.26 kg/m3. The mass density ([1]; 298.15 K, x1 = 0.3783) was 1257.32 ± 0.27 kg/m3, the mass density ([1]; 298.15 K, x1 = 0.4845) was 1293.53 ± 0.31 kg/m3 and the mass density ([1]; 298.15 K, x1 = 0.5809) was 1319.99 ± 0.33 kg/m3. For the same compound, the mass density ([1]; 298.15 K, x1 = 0.6768) was 1342.16 ± 0.37 kg/m3, the mass density ([1]; 298.15 K, x1 = 0.7744) was 1361.38 ± 0.42 kg/m3 and the mass density ([1]; 298.15 K, x1 = 0.8686) was 1376.73 ± 0.48 kg/m3. The mass density ([1]; 303.15 K, x1 = 0.0912) was 1065.22 ± 0.17 kg/m3, the mass density ([1]; 303.15 K, x1 = 0.1871) was 1151.35 ± 0.22 kg/m3 and the mass density ([1]; 303.15 K, x1 = 0.2922) was 1214.77 ± 0.25 kg/m3. The mass density ([1]; 303.15 K, x1 = 0.3783) was 1252.53 ± 0.27 kg/m3, the mass density ([1]; 303.15 K, x1 = 0.4845) was 1288.82 ± 0.31 kg/m3 and the mass density ([1]; 303.15 K, x1 = 0.5809) was 1315.37 ± 0.33 kg/m3. For the same compound, the mass density ([1]; 303.15 K, x1 = 0.6768) was 1337.55 ± 0.37 kg/m3, the mass density ([1]; 303.15 K, x1 = 0.7744) was 1356.72 ± 0.42 kg/m3 and the mass density ([1]; 303.15 K, x1 = 0.8686) was 1372.14 ± 0.48 kg/m3. The mass density ([1]; 308.15 K, x1 = 0.0912) was 1060.4 ± 0.17 kg/m3, the mass density ([1]; 308.15 K, x1 = 0.1871) was 1146.5 ± 0.22 kg/m3 and the mass density ([1]; 308.15 K, x1 = 0.2922) was 1210 ± 0.25 kg/m3. The mass density ([1]; 308.15 K, x1 = 0.3783) was 1247.8 ± 0.27 kg/m3, the mass density ([1]; 308.15 K, x1 = 0.4845) was 1284.1 ± 0.3 kg/m3 and the mass density ([1]; 308.15 K, x1 = 0.5809) was 1310.7 ± 0.32 kg/m3. The mass density ([1]; 308.15 K, x1 = 0.6768) was 1332.9 ± 0.36 kg/m3, the mass density ([1]; 308.15 K, x1 = 0.7744) was 1352 ± 0.41 kg/m3 and the mass density ([1]; 308.15 K, x1 = 0.8686) was 1367.6 ± 0.47 kg/m3. It also gave a mass density ([1]; 313.15 K, x1 = 0.0912) of 1055.43 ± 0.16 kg/m3, a mass density ([1]; 313.15 K, x1 = 0.1871) of 1141.58 ± 0.22 kg/m3 and a mass density ([1]; 313.15 K, x1 = 0.2922) of 1205.17 ± 0.25 kg/m3. For the same compound, the mass density ([1]; 313.15 K, x1 = 0.3783) was 1243.01 ± 0.27 kg/m3, the mass density ([1]; 313.15 K, x1 = 0.4845) was 1279.29 ± 0.3 kg/m3 and the mass density ([1]; 313.15 K, x1 = 0.5809) was 1306.04 ± 0.32 kg/m3. The mass density ([1]; 313.15 K, x1 = 0.6768) was 1328.25 ± 0.36 kg/m3, the mass density ([1]; 313.15 K, x1 = 0.7744) was 1347.28 ± 0.41 kg/m3 and the mass density ([1]; 313.15 K, x1 = 0.8686) was 1363.02 ± 0.47 kg/m3. It also gave a mass density ([1]; 318.15 K, x1 = 0.0912) of 1050.48 ± 0.16 kg/m3, a mass density ([1]; 318.15 K, x1 = 0.1871) of 1136.63 ± 0.22 kg/m3 and a mass density ([1]; 318.15 K, x1 = 0.2922) of 1200.26 ± 0.25 kg/m3. For the same compound, the mass density ([1]; 318.15 K, x1 = 0.3783) was 1238.22 ± 0.27 kg/m3, the mass density ([1]; 318.15 K, x1 = 0.4845) was 1274.53 ± 0.3 kg/m3 and the mass density ([1]; 318.15 K, x1 = 0.5809) was 1301.32 ± 0.32 kg/m3. It also gave a mass density ([1]; 318.15 K, x1 = 0.6768) of 1323.54 ± 0.36 kg/m3, a mass density ([1]; 318.15 K, x1 = 0.7744) of 1342.91 ± 0.41 kg/m3 and a mass density ([1]; 318.15 K, x1 = 0.8686) of 1358.3 ± 0.47 kg/m3. It also gave a mass density ([1]; 323.15 K, x1 = 0.0912) of 1045.36 ± 0.16 kg/m3, a mass density ([1]; 323.15 K, x1 = 0.1871) of 1131.55 ± 0.25 kg/m3 and a mass density ([1]; 323.15 K, x1 = 0.2922) of 1195.32 ± 0.26 kg/m3. It also gave a mass density ([1]; 323.15 K, x1 = 0.3783) of 1233.32 ± 0.27 kg/m3, a mass density ([1]; 323.15 K, x1 = 0.4845) of 1269.65 ± 0.3 kg/m3 and a mass density ([1]; 323.15 K, x1 = 0.5809) of 1296.48 ± 0.32 kg/m3. For the same compound, the mass density ([1]; 323.15 K, x1 = 0.6768) was 1318.83 ± 0.36 kg/m3, the mass density ([1]; 323.15 K, x1 = 0.7744) was 1338.2 ± 0.41 kg/m3 and the mass density ([1]; 323.15 K, x1 = 0.8686) was 1353.61 ± 0.46 kg/m3.

`CNC=O` [N-methylformamide] gave a mass density ([2]; 293.15 K) of 1003.59 ± 0.25 kg/m3, a mass density ([2]; 298.15 K) of 999.19 ± 0.24 kg/m3 and a mass density ([2]; 303.15 K) of 994.75 ± 0.24 kg/m3. The mass density ([2]; 308.15 K) was 990.33 ± 0.24 kg/m3, the mass density ([2]; 313.15 K) was 985.78 ± 0.24 kg/m3 and the mass density ([2]; 318.15 K) was 981.23 ± 0.24 kg/m3. For the same compound, the mass density ([2]; 323.15 K) was 976.57 ± 0.24 kg/m3.

For `CN(C)C=O` [dimethylformamide], the mass density ([2]; 293.15 K) was 948.79 ± 0.14 kg/m3, the mass density ([2]; 298.15 K) was 943.87 ± 0.14 kg/m3 and the mass density ([2]; 303.15 K) was 938.98 ± 0.14 kg/m3. The mass density ([2]; 308.15 K) was 934.07 ± 0.14 kg/m3, the mass density ([2]; 313.15 K) was 929.11 ± 0.14 kg/m3 and the mass density ([2]; 318.15 K) was 924.04 ± 0.14 kg/m3. For the same compound, the mass density ([2]; 323.15 K) was 918.91 ± 0.14 kg/m3.
